Experimental data published in patent US20240408169A1 (priority 2023, published 2024).
*1 amine or outer side, *2 acyl side, *3 side chain or, on linkers, in order; H or OH if unused. Where a SMILES comes first, the peptide text is derived from it. Bridges are numbered along the chain shown (N, C = ends). [ ]: non-standard residue; d: D form. The star is where a group is joined. NMePhe(2-(4-MorPh),5-Cl) = CN[C@@H](Cc1cc(Cl)ccc1-c1ccc(N2CCOCC2)cc1)C(=O)O; X121 = C[C@@H]1CN(c2ccc(-c3ccc(Cl)cc3C[C@@H](C(=O)[*:2])N(C)[*:1])cc2)CCO1; X144 = CN([C@@H](Cc1cc(Cl)ccc1-c1ccc(N2CC(C)(F)C2)nc1)C(=O)[*:2])[*:1]; X191 = CN([C@@H](Cc1cc(Cl)ccc1-c1ccc(N2CCOCC2)c(F)c1F)C(=O)[*:2])[*:1]; X212 = CN1CCC(Oc2ccc(-c3ccc(Cl)cc3C[C@@H](C(=O)[*:2])N(C)[*:1])cn2)CC1; X145 = CN1CCN(c2ccc(-c3ccc(F)cc3C[C@@H](C(=O)[*:2])N(C)[*:1])cc2F)CC1; X140 = CN([C@@H](Cc1cc(Cl)ccc1-c1ccc(Oc2cccnc2)cc1)C(=O)[*:2])[*:1]; NMehhhLys(Me) = CN([C@@H](CCCCCCCN(C)[*:3])C(=O)[*:2])[*:1]; X132 = CN([C@@H](Cc1cc(Cl)cc2ccoc12)C(=O)[*:2])[*:1]; cBuCO(3,3-F2-1-CF3) = O=C(C1(C(F)(F)F)CC(F)(F)C1)*; X182 = N#Cc1ccc(CC[C@H](N[*:1])C(=O)[*:2])cn1; Pro(trans-4-F) = O=C(O)[C@@H]1C[C@@H](F)CN1; Gly(cPr) = N[C@H](C(=O)O)C1CC1

How the values were obtained:
OVCAR3 cells = assay: MTT proliferation assay, OVCAR3; format: cell-based; conditions: 5 days compound exposure, 1:3 serial dilution starting at 10 μM;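 also: compound given as an 8- or 10-point series, one day after plating, with exposure covering roughly 3-4 cell doublings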
CyclinA2/CDK2 = biological target: T1, CyclinA2/CDK2 (Homo sapiens, UniProt P20248); assay: Fluorescence Polarization (FP) competitive binding assay, Cyclin A2/Cdk2; conditions: 8 nM Cyclin A2/Cdk2, 2 nM FAM probe; average of 2-3 independent experiments; read-out: Cyclin A FP IC50;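 also: plates equilibrated two hours at room temperature before polarization reading, IC50 fitted from eight-concentration compound titration curves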
T1 construct: purchased CRELUX Protein Services

CyclinB1/CDK1 = biological target: T2, CyclinB1/CDK1 (Homo sapiens, UniProt P14635); assay: Fluorescence Polarization (FP) competitive binding assay, Cyclin B1/Cdk1; conditions: 10 nM Cyclin B1/Cdk1, 2 nM FAM probe; average of 2-3 independent experiments; read-out: Cyclin B FP IC50;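 also: fluorescence polarization read after equilibration at room temperature, with IC50 taken from serially diluted dose-response curves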
T2 construct: purchased Eurofins, discovery 14-450

CyclinE1/CDK2 = biological target: T3, CyclinE1/CDK2 (Homo sapiens, UniProt P24864); assay: Fluorescence Polarization (FP) competitive binding assay, Cyclin E1/Cdk2; conditions: 10 nM Cyclin E1/Cdk2, 2 nM FAM probe; average of 2-3 independent experiments; read-out: Cyclin E FP IC50;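 also: readings taken after two-hour equilibration at room temperature in HEPES buffer with NaCl, DTT, NP-40 and BSA, IC50 fitted from eight-concentration serial dilution series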
T3 construct: purchased Eurofins, discovery 14-475

NCI-H1048 cells = assay: MTT proliferation assay, NCI-H1048; format: cell-based; conditions: 5 days compound exposure, 1:3 serial dilution starting at 10 μM;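 also: Dose-response in 96-well plates over 8 or 10 concentration points, with exposure spanning 3-4 cell doublings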

SMILES	GI50 (OVCAR3 cells) [nM]	IC50 (CyclinA2/CDK2) [nM]	IC50 (CyclinB1/CDK1) [nM]	IC50 (CyclinE1/CDK2) [nM]	GI50 (NCI-H1048 cells) [nM]
CC(C)C[C@@H]1NC(=O)[C@@H](N(C)C(=O)[C@@H](NC(=O)[C@@H]2C[C@@H](F)CN2C(=O)C2(C(F)(F)F)CC(F)(F)C2)C2CC2)CCCCCCCN(C)C(=O)[C@H](Cc2cc(Cl)ccc2-c2ccc(Oc3cccnc3)cc2)N(C)C1=O [Example 385] ({cBuCO(3,3-F2-1-CF3)}-[Pro(trans-4-F)][Gly(cPr)][NMehhhLys(Me)]L[X140]; lactam 3-C)	20	20	20	1630	30
CC(C)C[C@@H]1NC(=O)[C@@H](N(C)C(=O)[C@@H](NC(=O)[C@@H]2C[C@@H](F)CN2C(=O)C2(C(F)(F)F)CC(F)(F)C2)C2CC2)CCCCCCCN(C)C(=O)[C@H](Cc2cc(Cl)ccc2-c2ccc(N3CCOCC3)c(F)c2F)N(C)C1=O [Example 386] ({cBuCO(3,3-F2-1-CF3)}-[Pro(trans-4-F)][Gly(cPr)][NMehhhLys(Me)]L[X191]; lactam 3-C)	20	20	20	900	30
CC(C)C[C@@H]1NC(=O)[C@@H](N(C)C(=O)[C@@H](NC(=O)[C@@H]2C[C@@H](F)CN2C(=O)C2(C(F)(F)F)CC(F)(F)C2)C2CC2)CCCCCCCN(C)C(=O)[C@H](Cc2cc(Cl)cc3ccoc23)N(C)C1=O [Example 394] ({cBuCO(3,3-F2-1-CF3)}-[Pro(trans-4-F)][Gly(cPr)][NMehhhLys(Me)]L[X132]; lactam 3-C)	50	150	20	500	90
CC(C)C[C@@H]1NC(=O)[C@@H](N(C)C(=O)[C@@H](NC(=O)[C@@H]2C[C@@H](F)CN2C(=O)C2(C(F)(F)F)CC(F)(F)C2)C2CC2)CCCCCCCN(C)C(=O)[C@H](Cc2cc(Cl)ccc2-c2ccc(OC3CCN(C)CC3)nc2)N(C)C1=O [Example 396] ({cBuCO(3,3-F2-1-CF3)}-[Pro(trans-4-F)][Gly(cPr)][NMehhhLys(Me)]L[X212]; lactam 3-C)	10	30	20	2530	20
CC(C)C[C@@H]1NC(=O)[C@@H](N(C)C(=O)[C@@H](NC(=O)[C@@H]2C[C@@H](F)CN2C(=O)C2(C(F)(F)F)CC(F)(F)C2)C2CC2)CCCCCCCN(C)C(=O)[C@H](Cc2cc(F)ccc2-c2ccc(N3CCN(C)CC3)c(F)c2)N(C)C1=O [Example 401] ({cBuCO(3,3-F2-1-CF3)}-[Pro(trans-4-F)][Gly(cPr)][NMehhhLys(Me)]L[X145]; lactam 3-C)	10	20	20	380	10
CC(C)C[C@@H]1NC(=O)[C@@H](N(C)C(=O)[C@@H](NC(=O)[C@@H]2C[C@@H](F)CN2C(=O)C2(C(F)(F)F)CC(F)(F)C2)C2CC2)CCCCCCCN(C)C(=O)[C@H](Cc2cc(Cl)ccc2-c2ccc(N3CC(C)(F)C3)nc2)N(C)C1=O [Example 402] ({cBuCO(3,3-F2-1-CF3)}-[Pro(trans-4-F)][Gly(cPr)][NMehhhLys(Me)]L[X144]; lactam 3-C)	10	20	20	960	40
CCN1CCCCCCC[C@H](N(C)C(=O)[C@@H](NC(=O)[C@@H]2C[C@@H](F)CN2C(=O)C2(C(F)(F)F)CC(F)(F)C2)C2CC2)C(=O)N[C@@H](CC(C)C)C(=O)N(C)[C@@H](Cc2cc(Cl)ccc2-c2ccc(N3CCOCC3)cc2)C1=O [Example 404]	30	20	20	1530	20
CC(C)C[C@@H]1NC(=O)[C@@H](N(C)C(=O)[C@@H](NC(=O)[C@@H]2C[C@@H](F)CN2C(=O)C2(C(F)(F)F)CC(F)(F)C2)C2CC2)CCCCCCCN(C)C(=O)[C@H](Cc2cc(Cl)ccc2-c2ccc(N3CCO[C@H](C)C3)cc2)N(C)C1=O [Example 414] ({cBuCO(3,3-F2-1-CF3)}-[Pro(trans-4-F)][Gly(cPr)][NMehhhLys(Me)]L[X121]; lactam 3-C)	10	30	20	940	10
CC(C)C[C@@H]1NC(=O)[C@@H](N(C)C(=O)[C@H](CCc2ccc(C#N)nc2)NC(=O)[C@@H]2C[C@@H](F)CN2C(=O)C2(C(F)(F)F)CC(F)(F)C2)CCCCCCCN(C)C(=O)[C@H](Cc2cc(Cl)ccc2-c2ccc(N3CCOCC3)cc2)N(C)C1=O [Example 416] ({cBuCO(3,3-F2-1-CF3)}-[Pro(trans-4-F)][X182][NMehhhLys(Me)]L[NMePhe(2-(4-MorPh),5-Cl)]; lactam 3-C)	40	40	20	3980	30
